From article PMC9964718, “Diterpenoids from Euphorbia gedrosiaca as Potential Anti-Proliferative Agents against Breast Cancer Cells” (Metabolites, 2023)

Assays:
[1] = MTT viability assay, L929 normal fibroblast cell line; assay type: cell-based; conditions: L929 normal fibroblast cells (NCTC clone 929), L929 (normal) mouse fibroblast, 24 h incubation, mean ± SD (n = 3), read-out: Cytotoxic activity IC50
Method: (§1) MDA MB-231 and MCF-7 (ATCCR HTB-26 and ATCCR HTB-22) breast cancer cells, originated from Pasteur Institute (IPI, Tehran, I.R. Iran), were cultured in RPMI1640 with streptomycin, penicillin, and fetal bovine serum (FBS) (100 µg/mL, 100 units/mL, 10%) with criteria of 5% carbon dioxide, 37 °C, and 95% humidity for a few days. Mouse normal fibroblast cell line (NCTC clone 929 from the same institute) was cultured in DMEM+10% FBS+ 1% penicillin/streptomycin in the same conditions. After incubation, cells were seeded at 7 × 10^3 cells in each well of ninety-six well plates for 12 h. Then, the media were changed, and sample compounds in concentrations of 1, 10, and 100 µM were added. For L929 normal cell line, samples were added in the concentrations of 1, 10, 100, 250, and 500 µM. Placebo with the same amount of DMSO in each concentration used for compounds and Taxol in concentrations of 0.001, 0.01, 0.1, 1, and 10 µM were added as the negative and positive controls. After 24 h incubation time, the reduction agent (MTT, 5 mg/mL, 20 µL) was added to each well and incubated for 4 h to let the MTT be reduced into formazan derivative by the mitochondria of survived cells. The media was then changed with DMSO (200 µL) to solubilize the insoluble formazan crystals, and the absorbance was read by a Synergy ELISA reader (BioTek Instruments, Winooski, VT, USA) at 570 nm.

[2] = system: MDA-MB-231 (ATCCR HTB-26) breast cancer cells; assay: MTT viability assay, MDA-MB-231 breast cancer cells; assay type: cell-based; conditions: for IC50: Homo sapiens, MDA-MB-231, MTT, 24 h incubation, mean ± SD (n = 3), read-out: Cytotoxic activity IC50; for Cytotoxicity against MDA-MB-231 compared to MCF-7: comparison of MTT test results, MDA-MB-231 vs MCF-7
Method: as §1

[3] = system: MCF-7 (ATCCR HTB-22) breast cancer cells; assay: MTT viability assay, MCF-7 breast cancer cells; assay type: cell-based; conditions: for IC50: Homo sapiens, MCF7, MCF-7, MTT, 24 h incubation, mean ± SD (n = 3), read-out: Cytotoxic activity IC50; for Potency in MTT assay: MCF-7, 100 μM concentration, P values less than 0.0001
Method: as §1

[4] = system: human colon (Caco-2) tumor cells; parameters: method as in PMID 30200407; conditions: cited from earlier work
[5] = system: human lung (A549) tumor cells; parameters: method as in PMID 30200407; conditions: cited from earlier work
[6] = parameters: method as in PMID 30707022; conditions: compound isolated from roots of Euphorbia prolifera; cited from earlier work

Compound	IC50 at 24 h [1]	IC50 [2]	IC50 [3]	Potency in MTT assay [3]	Cytotoxicity against proliferation [4]	Cytotoxicity against proliferation [5]	Lipid-lowering activities and TG inhibitory effects [6]	Cytotoxicity against MDA-MB-231 compared to MCF-7 [2]
CCC(=O)O[C@@H]1[C@@H]2[C@@H](OC(=O)C(C)CC)[C@@]3(COC(=O)c4cccnc4)[C@@H]([C@@H]4[C@H](C[C@H]3OC(C)=O)C4(C)C)[C@](C)(OC(C)=O)C(=O)[C@@]2(O)C[C@@H]1C (stereo partly drawn) [Compound 1, 3β-O-propanoyl-5α-O-methylbutanoyl-7α,13β-O-diacetyl-17α-O-nicotinoyl-14-oxopremyrsinane]	528 ± 23.8 µM	10.8 ± 2.1 µM	22.2 ± 2.4 µM	reasonably potent	moderate cytotoxicity	moderate cytotoxicity		
CCC(=O)O[C@@H]1[C@@H]2[C@@H](OC(=O)c3ccccc3)[C@@]3(COC(C)=O)[C@@H]([C@@H]4[C@H](C[C@H]3OC(C)=O)C4(C)C)[C@](C)(OC(C)=O)C(=O)[C@@]2(O)C[C@@H]1C [Compound 2, 3β-O-propanoyl-5α-O-benzoyl-7α,13β, 17α -O-triacetyl-14-oxopremyrsinane]	553 ± 26.7 µM	22.2 ± 4 µM	27.8 ± 2.5 µM	reasonably potent			acceptable	
CCC(=O)O[C@@H]1[C@@H]2[C@@H](OC(=O)C(C)C)[C@@]3(COC(C)=O)[C@@H]([C@@H]4[C@H](C[C@H]3OC(C)=O)C4(C)C)[C@](C)(OC(C)=O)C(=O)[C@@]2(O)C[C@@H]1C [Compound 3, 3β-O-propanoyl-5α-O-isobutanoyl-7α,13β, 17α -O-triacetyl-14-oxopremyrsinane]	433 ± 22.1 µM	24.5 ± 3.8 µM	62.6 ± 4.9 µM		moderate cytotoxicity	moderate cytotoxicity		almost three times higher cytotoxicity
CCC(=O)O[C@@H]1[C@@H]2[C@@H](OC(=O)C(C)C)[C@@]3(COC(=O)c4cccnc4)[C@@H]([C@@H]4[C@H](C[C@H]3OC(C)=O)C4(C)C)[C@](C)(OC(C)=O)C(=O)[C@@]2(O)C[C@@H]1C [Compound 4, 3β-O-propanoyl-5α-O-isobutanoyl-7α,13β-O-diacetyl-17α-O-nicotinoyl-14-oxopremyrsinane]	716 ± 26.9 µM	27.3 ± 3.2 µM	74.4 ± 5.2 µM		moderate cytotoxicity	moderate cytotoxicity		almost three times higher cytotoxicity
CCC(=O)OC1C2C(OC(C)=O)C34COC(C)(C(OC(=O)c5ccccc5)C2(OC(C)=O)CC1(C)OC(C)=O)C3C(C(C)(C)OC(C)=O)C=CC4OC(C)=O (centres unmarked) [Compound 5, 2,5,7,10,15-O-pentaacetyl-3-O-propanoyl-14-O-benzoyl-13,17-epoxy-8-myrsinene]	596 ± 23.5 µM	33.7 ± 4.6 µM	126 ± 4.2 µM					
